Results published in patent US11840518B2, “Use of bromophenol-pyrazoline compounds for the treatment of feline coronavirus diseases” (Shandong Linghai Biotechnology Co., Ltd., priority 2021, dated 2023).

Experiments:
[1] = tested on: FIPV wild strain in CRFK cells; assay: Interference with FIPV replication in infected CRFK cells (qRT-PCR of vRNA in supernatant); type: cell-based, feline infectious peritonitis virus; details: 5 μM, CRFK cells infected with wild-type FIPV, 24 hours; FIG. 2
Procedure: To further confirm in vitro enzymatic inhibition results, the inventors evaluated whether the bromophenol-pyrazoline compounds could prevent FIPV replication in clinical wild-type FIPV-infected Crandell-Rees feline kidney (CRFK) cells.
The CRFK cells were cultured with DMEM containing 8% fetal bovine serum in a cell incubator with 5% CO2 at 37° C. When the cells grew to a density of about 80%, the cells were pretreated with 5 μM bromophenol-pyrazoline compounds to be tested for 1 hour, and then an FIPV wild strain (MOI=0.1) was inoculated into the CRFK cells. The CRFK cells inoculated with virus but without the compounds were set up as controls. After 24 hours, a cell supernatant was collected, and vRNA in the supernatant was subject to qRT-PCR analysis.

FIPV = assay: Clinical trial in cats infected with the FIPV (feline infectious peritonitis); type: in vivo; details: for Moderate response: 4-week treatment
Excerpt: Serology or morphology cannot distinguish feline enteric coronavirus from the FIPV. According to the history, epidemiology, clinical symptoms, laboratory diagnosis, imaging examination and histopathological examination, the cats were diagnosed comprehensively after other diseases were ruled out.
Thirty cats infected with the FIPV were divided into a wet FIP group (n=17) and a dry FIP group (n=13) according to presence of significant pleural effusion, ascites, dyspnea and other symptoms (fibrous pleurisy and peritonitis). The wet FIP group (17 cats) was randomly divided into a control group (3 cats), a GS-441524 group (6 cats) and a compound 5 group (8 cats). The dry FIP group (13 cats) was randomly divided into a control group (2 cats), a GS-441524 group (5 cats) and a compound 5 group (6 cats).
For the wet and dry GS-441524 groups: 4.0 mg/kg was administered subcutaneously every 24 hours; and for the wet and dry compound 5 groups: 3 mg/kg was orally administered after dissolved in glucose solution once a day.
Rectal temperature was measured at least once a day, and body weight, respiration, appetite and activity were observed. Special people were arranged to feed the cats, and foodware was washed and disinfected every day. The cats with good appetite were fed with conventional cat food, and high protein pet food can was used as nutritional supplement. The cats with poor appetite were subject to nasal feeding and intravenous injection for nutritional supplement to ensure nutrition intake of the experimental cats. At the same time, defecation and urination were also observed in terms of volume and shape. The cats were examined for blood routine indexes, serum biochemical indicators and abdominal B ultrasound condition according to actual situation.
Cases with good appetite, body weight, respiration, body temperature and other body conditions at the completion of 4-week treatment, and examined for the blood routine indexes and serum biochemical indicators twice (more than 1 week apart) were defined as effective.

FIP = details: 4 weeks of continuous treatment at 4 mg/kg; cited from earlier work
[2] = dry FIP group, number of cats (GS-441524 group n=5, 4.0 mg/kg s.c.; compound 5 group n=6, 3 mg/kg oral)
[3] = dry FIP group, number of cats (GS-441524 group n=5; compound 5 group n=6)
[4] = wet FIP group, number of cats (GS-441524 group n=6, 4.0 mg/kg s.c.; compound 5 group n=8, 3 mg/kg oral)
[5] = wet FIP group, number of cats (GS-441524 group n=6; compound 5 group n=8)

Row | SMILES | ability to interfere with the FIPV virus replication [1] | time within which ocular lesions in some cats began to resolve significantly (FIPV; Compound 5 treatment group) [h] | treatment time after which normal cat food was given (FIPV; Compound 5 treatment group) [days] | treatment time after which the body temperature returned to normal and the body weight increased (FIPV; Compound 5 treatment group) [days] | comparison with the positive drug GS-441524 group (FIPV; compound 5 3 mg/kg oral once a day vs GS-441524 4.0 mg/kg s.c. every 24 hours) | Clinical manifestations: time within which ocular lesions in some cats began to resolve significantly (FIPV; dry FIP group) | Clinical manifestations: treatment time after which normal/ordinary cat food was given (FIPV; dry FIP group) | Clinical manifestations: treatment time after which the intake returned to normal (FIPV; dry FIP group) | Death (FIPV; [2]) | Moderate response (FIPV; [3]) | Clinical manifestations: treatment time after which ascites and dyspnea basically recovered (FIPV; wet FIP group) | Clinical manifestations: treatment time after which the normal cat food was given (FIPV; wet FIP group) | Death (FIPV; [4]) | Moderate response (FIPV; [5]) | Clinical manifestations: treatment time after which the food intake recovered (FIPV; dry FIP group) | Clinical manifestations: treatment time after which the food intake recovered (FIPV; wet FIP group) | cats with the FIP in remission (FIP)
1 | COc1ccc(C2=NN(C(N)=S)C(c3cc(O)c(O)c(Br)c3Br)C2)cc1 (stereo not drawn) [Compound 5] | strongest ability to inhibit FIPV virus replication | ≤ 48 | 1 | 7 | faster onset of action, fewer deaths and higher response rate | 48 hours, and the | given after 1 day of days | normal after 3 days | 0 | 5 | after 10 days of | After 1 day of treat- | 1 | 6 |  |  | 
2 | N#C[C@@]1(c2ccc3c(N)ncnn23)O[C@H](CO)[C@@H](O)[C@H]1O [GS-441524, reference compound] |  |  |  |  |  |  |  |  | 0 | 3 |  |  | 1 | 3 | After 3 days of treat- | After 3 days of treat- | about 60%
